Source: patent publication US9932329B2, “Benzimidazole derivatives as RLK and ITK inhibitors” (Principia Biopharma, Inc., priority 2014, dated 2018)
pIC50: −log10 of the molar value. Where a name gives a salt, the structure may show the parent alone. Read-outs that look alike come from different tables or passages of the source. One block for each compound: values may come before it.

Assays:
[1] = tested on: NFAT-bla Jurkat cells; assay: cells; conditions: Homo sapiens, read-out: TCR-induced NFAT IC50
[2] = target: RLK (Homo sapiens (Human), UniProt P42681); assay: Inhibition of RLK enzymatic activity, Caliper assay; format: biochemical
Sequence of RLK (P42681 whole entry): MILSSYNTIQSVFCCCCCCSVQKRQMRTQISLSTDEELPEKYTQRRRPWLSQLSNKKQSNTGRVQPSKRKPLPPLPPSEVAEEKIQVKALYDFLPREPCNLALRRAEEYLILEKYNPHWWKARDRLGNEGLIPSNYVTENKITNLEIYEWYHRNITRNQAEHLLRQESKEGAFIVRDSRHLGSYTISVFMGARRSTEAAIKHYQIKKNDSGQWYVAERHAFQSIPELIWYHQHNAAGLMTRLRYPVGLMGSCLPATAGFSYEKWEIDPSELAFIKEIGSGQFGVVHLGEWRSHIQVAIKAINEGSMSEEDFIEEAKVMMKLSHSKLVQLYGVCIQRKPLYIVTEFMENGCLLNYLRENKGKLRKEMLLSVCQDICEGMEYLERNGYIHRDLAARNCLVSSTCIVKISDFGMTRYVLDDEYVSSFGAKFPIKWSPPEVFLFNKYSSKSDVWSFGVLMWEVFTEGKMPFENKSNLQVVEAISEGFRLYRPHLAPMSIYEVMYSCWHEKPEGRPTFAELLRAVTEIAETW

[3] = tested on: human PBMCs; assay: cells; conditions: PBMC, read-out: CD3/CD28-induced IL-2 IC50
[4] = tested on: cell types that do not express ITK and RLK; assay: BioMap cell screening panel, cell types that do not express ITK and RLK; format: cell-based; conditions: data not shown
Text: (§1) FIG. 1 depicts the inhibition of intracellular expression of IL-17 in the presence of an ITK/RLK inhibitor (Tool Compound A) by a population of T-cells activated by anti-CD3/anti-CD-28. FIG. 2 depicts results from a BioMap® cell screening panel (performed by BioSeek, Inc., South San Francisco, Calif.) is a set of cell-based assays used to probe the cellular potency and selectivity of inhibitory compounds. A variety of cell culture and co-culture systems are stimulated with a range of molecules. Biomarker readouts are pathway activities in the culture systems. The biomarker readouts measured in each system are indicated along the x-axis. […] Three concentrations of Compound A were tested for the ability to modulate the various readouts. […] The TH2 system consists of primary human umbilical vein endothelial cells co-cultured with 14-day TH2 polarized CD4 T-cell blasts stimulated with TCR and IL-2.

[5] = tested on: human PBMC and B cell co-culture; assay: IL-17A secretion in PBMC-B cell co-cultures (BioMap BT system); format: cell-based
Text: as §1
(§2) Tool Compound A was tested in T cell co-cultures consisting of either a mixture of human primary peripheral blood mononuclear cells (PBMC) and B cells or human primary differentiated Th2 cells and human umbilical vein endothelial cells. The PBMC-B cell co-cultures were stimulated with TCR activators anti-CD3 and anti-CD28 and anti-IgM antibodies for 84 h to simulate B cell activation driven by T cell activation. Tool Compound A was tested at 10 μM, 1 μM, 100 nM and 10 nM. […]

[6] = tested on: human Th2 cell-HUVEC co-culture; assay: IL-17A secretion in primary Th2 cell-HUVEC co-cultures (BioMap TH2 system); format: cell-based; conditions: stimulated by TCR activation and interleukin-2
Text: as §1, §2

[7] = tested on: human Th17 cells; assay: Intracellular IL-17 expression by purified human Th17 cells after anti-CD3/anti-CD28 activation; format: cell-based; conditions: single dose of 500 nM, 1 h exposure, 12 h activation, FACS
Text: A population of T cells enhanced in Th17 cells was produced using the EasySep™ human Th17 enrichment kit from StemCell Technologies. […]

[8] = tested on: murine Th17 cells; assay: Differentiation of murine Th17 cells from CD4+ cells of TCR transgenic mice; format: cell-based, mouse; conditions: for pIC50: Mus musculus, 72 h
Description: CD4+ cells from TCR transgenic mice (B10.A 5C.C7 TCR Tg (Rag-2^−/−)) were grown for three days in the presence of culture conditions that support the differentiation of the T cell population to Th17 cells (optimized concentrations of IL-6, TGF-β, IL-1β, IL-23, anti-mouse IL-2, anti-mouse IFN-γ, and anti-mouse IL-4 mAb). This was done in the presence of varying concentrations of Tool Compound A in the cell culture medium during the differentiation procedure. The cells were then activated with a combination of phorbol 12-myristate 13-acetate and ionomycin and the expression of the Th17 specific transcription factor RORγt and intracellular IL-17A was measured by flow cytometry.

[9] = ATP at Km (100 μM), 15 min pre-incubation, 3 h reaction

SMILES: CC(C)(C)C=C(C#N)C(=O)N1CCC[C@@H]1Cn1c(NC(=O)c2ccc(-c3cnco3)s2)nc2cc(CO)ccc21 [Example 1, (R)-N-(1-((1-(2-cyano-4,4-dimethylpent-2-enoyl)pyrrolidin-2-yl)methyl)-5-(hydroxymethyl)-1H-benzo[d]imidazol-2-yl)-5-(oxazol-5-yl)thiophene-2-carboxamide]
- pIC50 [1]: 7.30
- pIC50 [2, 9]: 8.92
- pIC50 [3]: 7.15

SMILES: CC(C)(C)C=C(C#N)C(=O)N1CCC[C@@H]1Cn1c(NC(=O)c2ccc(-c3cnco3)s2)nc2cc(CNCC3CC3)ccc21 [Example 2, (R)-N-(1-((1-(2-cyano-4,4-dimethylpent-2-enoyl)pyrrolidin-2-yl)methyl)-5-(((cyclopropyl-methyl)-amino)methyl)-1H-benzo[d]imidazol-2-yl)-5-(oxazol-5-yl)thiophene-2-carboxamide formate]
- pIC50 [1]: 6.27
- pIC50 [3]: 7.09

SMILES: COCC(C)NCc1ccc2c(c1)nc(NC(=O)c1ccc(-c3cnco3)s1)n2C[C@H]1CCCN1C(=O)C(C#N)=CC(C)(C)C (stereo partly drawn) [Example 7, N-1-(((R)-1-(2-cyano-4,4-dimethylpent-2-enoyl)pyrrolidin-2-yl)methyl)-5-((((R)-1-methoxypropan-2-yl)amino)methyl)-1H-benzo[d]imidazol-2-yl)-5-(oxazol-5-yl)-thiophene-2-carboxamide formate]
- pIC50 [1]: 7.00
- pIC50 [2, 9]: 8.68
- pIC50 [3]: 6.96

SMILES: C=CC(=O)N1CCC[C@@H]1Cn1c(NC(=O)c2ccc(-c3cnco3)s2)nc2cc(CNCC3CC3)ccc21 [Example 9, (R)-N-(1-((1-acryloylpyrrolidin-2-yl)methyl)-5-(((cyclopropylmethyl)amino)methyl)-1H-benzo[d]imidazol-2-yl)-5-(oxazol-5-yl)thiophene-2-carboxamide]
- pIC50 [1]: 8.40
- pIC50 [2, 9]: 9.52
- pIC50 [3]: 8.40

- pIC50 [2, 9]: 9.70
SMILES: C=CC(=O)N1CCC[C@@H]1Cn1c(NC(=O)c2ccc(-c3cnco3)s2)nc2cc(CN[C@H](CO)C(C)(C)C)ccc21 [Example 10, N-(1-(((R)-1-acryloylpyrrolidin-2-yl)methyl)-5-((((S)-1-hydroxy-3,3-dimethylbutan-2-yl)-amino)methyl)-1H-benzo[d]imidazol-2-yl)-5-(oxazol-5-yl)thiophene-2-carboxamide]

- pIC50 [2, 9]: 9.30
SMILES: C=CC(=O)N1CCC[C@@H]1Cn1c(NC(=O)c2ccc(-c3cnco3)s2)nc2cc(CN[C@@H](CO)C(C)(C)C)ccc21 [Example 11, N-(1-(((R)-1-acryloylpyrrolidin-2-yl)methyl)-5-((((R)-1-hydroxy-3,3-dimethylbutan-2-yl)-amino)-methyl)-1H-benzo[d]imidazol-2-yl)-5-(oxazol-5-yl)thiophene-2-carboxamide]

SMILES: C=CC(=O)N1CCC[C@@H]1Cn1c(NC(=O)c2ccc(-c3cnco3)s2)nc2cc(CN[C@@H](C)CO)ccc21 [Example 12, N-(1-(((R)-1-acryloylpyrrolidin-2-yl)methyl)-5-((((S)-1-hydroxypropan-2-yl)amino)methyl)-1H-benzo[d]imidazol-2-yl)-5-(oxazol-5-yl)thiophene-2-carboxamide]
- pIC50 [1]: 8.30
- pIC50 [2, 9]: 9.52
- pIC50 [3]: 8.40

- pIC50 [2, 9]: 9.52
SMILES: C=CC(=O)N1CCC[C@@H]1Cn1c(NC(=O)c2ccc(-c3cnco3)s2)nc2cc(CN[C@H](C)CO)ccc21 [Example 13, N-(1-(((R)-1-acryloylpyrrolidin-2-yl)methyl)-5-((((R)-1-hydroxypropan-2-yl)amino)methyl)-1H-benzo[d]imidazol-2-yl)-5-(oxazol-5-yl)thiophene-2-carboxamide]

- pIC50 [2, 9]: 8.92
SMILES: C[C@H](NCc1ccc2c(c1)nc(NC(=O)c1ccc(-c3cnco3)s1)n2C[C@H]1CCCN1C(=O)C(C#N)=CC(C)(C)C)C(C)(C)C [Example 15, N-(1-(((R)-1-(2-cyano-4,4-dimethylpent-2-enoyl)pyrrolidin-2-yl)methyl)-5-((((S)-3,3-dimethyl-butan-2-yl)amino)methyl)-1H-benzo[d]imidazol-2-yl)-5-(oxazol-5-yl)thiophene-2-carboxamide]

SMILES: C=CC(=O)N1CCC[C@@H]1Cn1c(NC(=O)c2ccc(C(F)F)s2)nc2cc(CN[C@@H](C)C(C)(C)C)ccc21 [PRN694]
- Inhibitory activity in cell types that do not express ITK and RLK [4]: essentially no inhibitory activity

SMILES: C[C@H](NCc1ccc2c(c1)nc(NC(=O)c1ccc(C(F)F)s1)n2C[C@H]1CCCN1C(=O)C(C#N)=CC(C)(C)C)C(C)(C)C [Tool Compound A, N-(1-(((R)-1-(2-cyano-4,4-dimethylpent-2-enoyl)pyrrolidin-2-yl)methyl)-5-((((S)-3,3-dimethylbutan-2-yl)amino)methyl)-1H-benzo[d]imidazol-2-yl)-5-(difluoromethyl)thiophene-2-carboxamide]
- IL-17A secretion into culture supernatant ([5]; 10 μM, 1 μM, 100 nM and 10 nM, anti-CD3, anti-CD28 and anti-IgM for 84 h): inhibited in a dose dependent manner
- Release of soluble proinflammatory cytokines IL17A, IL17F and TNFα by activated T cells ([5]; BioMap panel, three concentrations): inhibits release
- IL-17A secretion [6]: inhibited IL-17A secretion in a dose dependent manner
- TCR-induced intracellular expression of IL-17 [7]: completely blocked
- pIC50 ([8]; three days under Th17 conditions, PMA/ionomycin, flow cytometry, read-out: Midpoint of dose response - Th17: Intracellular cytokine expression (IL-17)): > 7.60
- pIC50 ([8]; three days under Th17 conditions, PMA/ionomycin, flow cytometry, read-out: Midpoint of dose response - Th17: Transcription factor expression (RORγt)): ~7.60
- pIC50 ([8]; three days under Th17 differentiation conditions, read-out: Midpoint of dose response - Th17: Proliferation): > 7.60
- Concentration that blocks expression of Th17 differentiation markers (RORγt and IL-17A) ([8]; cultures polarizing murine T cells into Th17): ≤ 25 nM
- pIC50 [2]: 9.00
